Experiments:
Type in all cases: functional
Bacillus cereus = experiment: Antimicrobial activity against Bacillus cereus by disk diffusion method
Bacillus subtilis = experiment: Antimicrobial activity against Bacillus subtilis by disk diffusion method
Shigella boydii = experiment: Antimicrobial activity against Shigella boydii by disk diffusion method
Shigella dysenteriae = experiment: Antimicrobial activity against Shigella shigae by disk diffusion method
Shigella sonnei = experiment: Antimicrobial activity against Shigella sonnei by disk diffusion method
Staphylococcus aureus = experiment: Antimicrobial activity against Staphylococcus aureus by disk diffusion method
Enterococcus faecalis = experiment: Antimicrobial activity against sStreptococcus faecalis by disk diffusion method

Row | SMILES | inhibition zone (IZ) (Bacillus cereus) [mm] | inhibition zone (IZ) (Bacillus subtilis) [mm] | inhibition zone (IZ) (Shigella boydii) [mm] | inhibition zone (IZ) (Shigella dysenteriae) [mm] | inhibition zone (IZ) (Shigella sonnei) [mm] | inhibition zone (IZ) (Staphylococcus aureus) [mm] | inhibition zone (IZ) (Enterococcus faecalis) [mm]
1 | C=C1CC[C@H]2[C@@]3(C)CCC[C@]2(C(=O)OC3)[C@H]1CC(=O)c1ccoc1 | 13 | 16 | 8 | 12 | 10 | 14 | 12
2 | C[C@H]1c2cccc(O)c2C(=O)C2=C(O)[C@]3(O)C(=O)C(C(N)=O)=C(O)[C@@H](N(C)C)[C@@H]3[C@@H](O)[C@@H]21.O [DOXYCYCLINE] | 31 | 34 | 38 | 37 | 30 | 35 | 35

Source: ChEMBL document CHEMBL1159202, “A furanoid labdane diterpene from Potamogeton nodosus” (1998)
